Results from patent US20260209270A1, “Synthetic Peptide And Construct” (TOAGOSEI CO., LTD., priority 2022, published 2026).
FAM = 5(6)-carboxyfluorescein

System: NSC-34 cells
Experiment: Evaluation of cell membrane permeability by flow cytometry (MFI of FAM fluorescence)
Format: cell-based, mouse
Conditions: for MFI: NSC-34 cells; for value of MFI compared with Reference Example 1 (FAM alone): 20 μM
Procedure: As a culture medium of the NSC-34 cell, 10% fetal bovine serum (FBS)-containing Dulbecco's modified Eagle's medium (DMEM (Cat No. 044-29765, manufactured by FUJIFILM Wako Pure Chemical Corporation)) was used. The samples 1 to 6 were each dissolved in dimethyl sulfoxide (DMSO) to prepare sample solutions 1 to 6 with a sample concentration of 4 mM. Then, the sample solutions were diluted in the culture medium to prepare 40 μM sample solutions 1 to 6.
The NSC-34 cell was suspended in the culture medium to prepare a cell suspension of 2×10^5 cells/mL. The cell suspension was added by 1 mL to a well of a commercially available six-hole (well) plate (manufactured by AGC TECHNO GLASS Co., Ltd.) so as to seed the NSC-34 cell to be 2× 10^5 cells/well. […] After that, the six-well plate was left at rest in a cell culture apparatus, and incubated for 20 hours at 37° C. under a 5% CO2 condition.
After the 20-hour incubation, the culture supernatant was removed from the well and the cells in the well were cleaned twice with 1 mL of PBS. Next, 100 μL of the 0.25% trypsin/EDTA solution was added to the well and the incubation was performed for three minutes at 37° C. After the incubation, 900 μL of the culture medium was added to the well to deactivate the trypsin. Subsequently, the cell suspension in the well was transferred to a tube and the cells were collected. This tube was subjected to five-minute centrifugal separation at 4° C. under a condition of 210×g. After the centrifugal separation, the supernatant was removed and the precipitate (cell pellet) was suspended (cleaned) with 1 mL of PBS, which was followed by the centrifugal separation under the same condition as that described above. After this operation was repeated twice, the supernatant was removed and thus, the cells (cell pellet) cultured in the culture medium containing the sample 1 were obtained.
Regarding the obtained cells (cell pellet), the cell membrane permeability of the sample 1 was analyzed using a flow cytometer. As the flow cytometer, On-Chip Flowcytometer (manufactured by On-Chip Biotechnologies Co., LTD.) was used.
For such an analysis, the obtained cell pellet was suspended with 100 μL of on-chip T buffer to prepare a cell suspension for analysis.
Using the aforementioned flow cytometer, gating based on forward scatter (FSC) and side scatter (SSC) was performed to set a gate about a cell group to be analyzed, and the fluorescence intensity was measured about the cell group in this gate. Note that the number of cells of the cell group was set to at least 10000 or more in the analysis. The fluorescence intensity was measured using a fluorescence detector FL2 of the flow cytometer (optimum detection wavelength around 543 nm) capable of detecting the fluorescence wavelength of FAM. Regarding this measurement result, the analysis was performed using commercially available analysis software “FlowJo” (manufactured by TreeStar) to obtain mean fluorescence intensity (MFI) of the cell group to be measured. […]

[1] = Test 1, sample/FAM concentration 20 μM in culture medium, 20 hours incubation at 37° C., detector FL2
[2] = Test 2, sample/FAM concentration 25 μM in culture medium, otherwise similar to Test 1

| Substance | MFI [1] | MFI [2] | value of MFI compared with Reference Example 1 (FAM alone) (Test 1) |
| --- | --- | --- | --- |
| 5(6)-carboxyfluorescein [Reference Example 1, reference compound] | 10.9 | 13.1 | – |
| Ac-PD-FAM [Example 5] | 7.8 | – | lower |
| Ac-PDPD-FAM [Example 1] | 15 | – | – |
| Ac-PDPDPDPDPDPDG-FAM (Ac-PDPDPDPDPDPDG-{FAM}) [Example 7, construct: N-terminally acetylated peptide 7 bonded to FAM] | – | 27.5 | – |
| Ac-PDPEG-FAM [Example 3] | 18.9 | – | – |
| Ac-PDPEPDPEPDPEG-FAM (Ac-PDPEPDPEPDPEG-{FAM}) [Example 9, construct: N-terminally acetylated peptide 9 bonded to FAM] | – | 25.1 | – |
| Ac-PE-FAM [Example 6] | 7.4 | – | lower |
| Ac-PEPDG-FAM [Example 4] | 19.9 | – | – |
| Ac-PEPE-FAM [Example 2] | 16.2 | – | – |
| Ac-PEPEPEPEPEPEG-FAM (Ac-PEPEPEPEPEPEG-{FAM}) [Example 8, construct: N-terminally acetylated peptide 8 bonded to FAM] | – | 29.3 | – |
